Experiments:
Type in all cases: in vivo, SD rats
[1] = test system: rat pulmonary fibrosis model; test: R value comprehensive evaluation of 8 indicators, Example 1; details: for Total efficacy related indicator R value: 8 indicators, R=1 best effect, R=2 no corrective effect, X ± SE, N = 8
Description: The data were standardized and the Rcomprehensive value data set was established (Rcomprehensive=R−(−2)). […] When Rcomprehensive<1, it means that the comprehensive corrective degree of the drug on such indicators exceeds the normal value.
A total of 8 indicators, i.e., lung function (FVC, FEV0.3, IC, Cydn), lung tissue pathology (H&E staining, Masson staining), and collagen deposition (CoL I, α-SMA) were calculated using the R value comprehensive evaluation method.

[2] = test system: rat pulmonary fibrosis model; test: Lung tissue pathology, H&E and Masson staining, Szapiel scoring, Example 1; details: for Alveolitis (score): H&E staining; for Alveolitis (score) / Pulmonary fibrosis (score): score 0-3, doses per Table 4, 14 days, X ± SE, N = 6; for Pulmonary fibrosis (score): Masson staining
Description: (§1) A rat pulmonary fibrosis model was prepared using a one-time intratracheal instillation of bleomycin. After the rat was anesthetized by intraperitoneal injection of 10% chloral hydrate (3.0 ml/kg), it was tilted back and fixed on a rat board and irradiated with light source on the throat, and the glottis was seen to open and close in an orderly manner with breathing when the tongue was gently lifted to open the mouth. The indwelling needle was gently pushed into the trachea as the glottis opened and closed, the needle core was pulled out, and whether tracheal intubation was successful was verified by swing of a cotton thread. Bleomycin was injected into the trachea at a dose of 5 mg/kg, and 0.5 ml of air was further injected to ensure the depth of the drug. The rat was held upright and rocked from side to side to ensure even distribution of the drug in the lung. The anesthetized rat was placed on an electric blanket to maintain body temperature. After waking up, it is placed into a corresponding cage. The rats were fed normally until the 28th day, drinking pure water and eating sterile feed freely every day.
(§2) The modeling day was set as day 0.
The left lung was fixed with 10% formaldehyde for 72 hours, embedded in paraffin, sectioned at 4 μm for HE and Masson staining.
Pathological scoring of alveolitis and pulmonary fibrosis was performed according to the Szapiel method, the degree of alveolitis was determined by HE staining, and the degree of pulmonary fibrosis was determined by Masson staining.
The pathological changes in lung tissue were observed using an optical microscope. 6 sections were selected from each group and 6 fields were selected from each section.

[3] = test system: α-SMA; test: α-SMA expression in lung tissue by immunohistochemistry, Example 1; details: for α-SMA (IOD): lung tissue IHC, doses per Table 4, 14 days, X ± SE, N = 6; for expression of α-SMA protein, compared with the model group: P<0.05
Description: as §1, §2
(§3) The detection was performed by Immunohistochemistry.
(§4) The lung tissue was sliced into 4 μm sections and baked at 60° C. for 3 hours. The paraffin sections were dewaxed in xylene, dehydrated in gradient alcohols, and washed in distilled water for 2 minutes in order. The washed sections were then boiled in 0.01 M citrate buffer in a microwave oven for antigen retrieval. A 3% […] was added dropwise to the sections to block endogenous peroxidase. After the sections were blocked with a 5% BSA blocking solution and incubated at 37° C. for 30 minutes, the primary antibody was added dropwise thereto (the dilution ratio was 1:500 for CoL I, and 1:2000 for α-SMA), and the sections were incubated overnight in a humid box at 4° C. HRP-labeled goat anti-rabbit secondary antibody was added dropwise, and the sections were incubated at 37° C. for 20 minutes; and then SABC was added dropwise and the sections were incubated at 37° C. for 30 minutes. Thereafter, a freshly prepared DAB chromogenic solution was added dropwise, and the sections were observed under a microscope, and the color development was stopped once brownish yellow appeared. The sections were counterstained with hematoxylin for 30 seconds, differentiated with a 1% hydrochloric acid in alcohol for 3 seconds; and dehydrated in gradient alcohols in sequence. The sections were dried in a fume hood, sealed with neutral gum, and dried in the air. Images were collected with Olympus-DP70 microscope (Image-Pro Plus 6.0, IPP 6.0), 6 fields were randomly selected for each section, and the image integrated optical density (IOD) was calculated.

[4] = test system: CoL I; test: CoL I expression in lung tissue by immunohistochemistry, Example 1; details: for COL I (IOD): lung tissue IHC, doses per Table 4, 14 days, X ± SE, N = 6; for expression of CoL I protein, compared with the model group: P<0.01, P<0.05
Description: as §1, §2, §3, §4

[5] = test system: rat pulmonary fibrosis model; test: Lung function (FinePointe PFT) in bleomycin pulmonary fibrosis rats, Example 1
Description: as §1, §2
(§5) Before collecting the sample, the rat was anesthetized and submitted to a tracheotomy, and the tracheal tube was inserted into the rat's trachea and fixed. The FinePointe™ series PFT measurement system was used to detect the rat's forced vital capacity (FVC), forced expiratory volume in 0.3 s (FEV 0.3), vital capacity (VC), and dynamic lung compliance (Cydn).

[6] = test system: rat pulmonary fibrosis model; test: Lung function in bleomycin pulmonary fibrosis rats, Example 2; details: for IC: isoliquiritigenin, paeoniflorin, combination each 0.55 mg/kg/d intragastric, day 29-42, X ± SE, N = 10
[7] = test system: rat pulmonary fibrosis model; test: Lung tissue pathology, H&E and Masson staining, Szapiel scoring, Example 2; details: for Alveolitis (score): H&E staining; for Alveolitis (score) / Pulmonary fibrosis (score): each 0.55 mg/kg/d, 14 days, X ± SE, N = 6; for Pulmonary fibrosis (score): Masson staining
Description: The experimental materials and research methods were the same as those in Example 1. […] The modeling day was set as day 0. […] The left lung was fixed with 10% formaldehyde for 72 hours, embedded in paraffin, sectioned at 4 μm for HE and Masson staining. Pathological scoring of alveolitis and pulmonary fibrosis was performed according to the Szapiel method, the degree of alveolitis was determined by HE staining, and the degree of pulmonary fibrosis was determined by Masson staining. The pathological changes in the lung tissue were observed using an optical microscope. 6 sections were selected from each group and 6 fields were selected from each section.

[8] = test system: rat pulmonary fibrosis model; test: Lung function in bleomycin pulmonary fibrosis rats, Example 2; details: for Cydn / FEV0.3 / FVC: isoliquiritigenin, paeoniflorin, combination each 0.55 mg/kg/d intragastric, day 29-42, X ± SE, N = 10
Description: In order to evaluate the difference in the efficacy of isoliquiritigenin and paeoniflorin alone and in combination, a study was conducted by splitting the Formula 8 into isoliquiritigenin, paeoniflorin and combination thereof, each adopting the dose of 0.55 mg/kg/d.
The experimental materials and research methods were the same as those in Example 1.
A total of 72 rats were randomly divided into blank group, model group, isoliquiritigenin group, paeoniflorin group, combination group, and pirfenidone group, 6 groups in total, 12 rats in each group, and 6 female/group, 6 male/group. The modeling day was set as day 0. From the 29th day, the blank group (normal rats without modeling) and the model group were administered intragastrically with physiological saline (2 ml/rat), the isoliquiritigenin group was administered with isoliquiritigenin (0.55 mg/kg/d), the paeoniflorin group was administered with paeoniflorin (0.55 mg/kg/d), and the combination group was administered with isoliquiritigenin+paeoniflorin (0.55 mg/kg/d), once daily, for 14 days, and the samples were collected at the end of the 42nd day.
as §5, with “rats were” for “rat was”

[9] = bleomycin 5 mg/kg intratracheal, intragastric once daily day 29-42, doses per Table 4, X ± SE, N = 10

Molecule | Total efficacy related indicator R value [1] | Alveolitis (score) [2] [score] | Pulmonary fibrosis (score) [2] [score] | alveolitis scores, compared with the model group ([2]; P<0.01, P<0.05) | α-SMA (IOD) [3] [IOD] | COL I (IOD) [4] [IOD] | Cydn [5, 9] [mL/s] | FEV0.3 [5, 9] | IC [6] [mL/s] | Alveolitis (score) [7] [score] | Pulmonary fibrosis (score) [7] [score] | pulmonary fibrosis score, compared with the model group ([7]; P<0.01, P<0.05) | FEV0.3, compared with the model group ([8]; P<0.01, P<0.05) | Cydn [8] [mL/s] | FEV0.3 [8] [mL/s] | FVC [8] [mL/s] | expression of CoL I protein, compared with the model group [4] | expression of α-SMA protein, compared with the model group [3] | IC, compared with the model group ([5]; P<0.01, P<0.05) | other results
COc1ccc(-c2oc3c(CC=C(C)C)c(O[C@@H]4O[C@H](CO)[C@@H](O)[C@H](O)[C@H]4O)cc(O)c3c(=O)c2O[C@@H]2O[C@@H](C)[C@H](O)[C@@H](O)[C@H]2O)cc1 [Formula 3, icariin] | 1.76 ± 0.16^∘^ | 0.94 ± 0.39 | 1.33 ± 0.31 | significantly reduced | 12.03 ± 1.87 | 17.80 ± 1.44 | 0.34 ± 0.05 | 10.46 ± 1.58 mL/s | – | – | – | – | – | – | – | – | – | – | – | –
O=C(/C=C/c1ccc(O)cc1)c1ccc(O)cc1O [Formula 4, isoliquiritigenin] | 1.82 ± 0.11^∘∘ | 1.72 ± 0.25 | 1.78 ± 0.33 | – | 12.20 ± 0.89 | 15.54 ± 2.59 | 0.30 ± 0.03 | 10.42 ± 1.43 mL/s | 9.03 ± 0.88 | 1.68 ± 0.30 | 1.74 ± 0.31 | could reduce | increased | 0.32 ± 0.04 | 11.09 ± 1.01 | 11.34 ± 0.78 | significantly reduced | – | – | –
COc1ccc(-c2cc(=O)c3c(OC)c(OC)c(OC)c(OC)c3o2)cc1OC [Formula 5, nobiletin] | 1.48 ± 0.46 | 1.39 ± 0.54 | 1.56 ± 0.49 | – | 9.030 ± 0.8 | 18.40 ± 0.89 | 0.35 ± 0.02 | 11.44 ± 1.41 mL/s | – | – | – | – | – | – | – | – | – | significantly reduced | – | Cydn, compared with the model group ([5]; P<0.05): increased
C[C@H]1CC[C@@H]2N(C1)C[C@H]1[C@@H]3C[C@H]4[C@@H](C[C@H](O)[C@H]5C[C@@H](O)CC[C@@]54C)[C@@H]3CC[C@@H]1[C@]2(C)O [Formula 6, peimine] | 1.57 ± 0.29 | 1.17 ± 0.19 | 1.39 ± 0.23 | significantly reduced | 9.647 ± 0.8 | 17.37 ± 0.89 | 0.30 ± 0.03 | 12.04 ± 1.36 mL/s | – | – | – | – | – | – | – | – | – | significantly reduced | – | –
Cc1ccc(=O)n(-c2ccccc2)c1 [Pirfenidone] | 1.61 ± 0.32^#^ | 1.33 ± 0.24 | 1.33 ± 0.37 | – | 12.57 ± 1.17 | 10.41 ± 0.63 | 0.33 ± 0.03 | 10.68 ± 0.97 mL/s | 10.77 ± 0.83 | 1.43 ± 0.28 | 1.46 ± 0.39 | significantly reduced | increased | 0.33 ± 0.03 | 13.46 ± 1.04 | 12.34 ± 1.11 | significantly reduced | – | significantly increased | IC, compared with the model group ([6]; P<0.01, P<0.05): increased; alveolitis score, compared with the model group ([7]; P<0.01, P<0.05): significantly reduced
paeoniflorin [Formula 7] | 1.41 ± 0.27^##□▪ | 1.44 ± 0.27 | 0.94 ± 0.16 | – | 10.57 ± 0.36 | 13.61 ± 1.90 | 0.31 ± 0.03 | 14.70 ± 1.25^##Δ ml/s | 9.62 ± 0.54 | 1.52 ± 0.29 | 1.65 ± 0.19 | could reduce | increased | 0.31 ± 0.54 | 12.88 ± 0.98 | 13.49 ± 1.17 | significantly reduced | significantly reduced | significantly increased | R value comprehensive evaluation, comparison between treatment groups [1]: better than the Formula 3 (icariin), the Formula 4 (isoliquiritigenin), and the Formula 5 (nobiletin); pulmonary fibrosis scores, compared with the model group ([2]; P<0.01, P<0.05): significantly reduced; FVC, compared with the model group ([8]; P<0.01, P<0.05): increased; FEV0.3, compared with the model group ([5]; P<0.01, P<0.05): significantly increased; FVC, compared with the model group ([5]; P<0.01, P<0.05): significantly increased; FEV0.3, compared with the pirfenidone group ([5]; P<0.05): increased; FVC, compared with the pirfenidone group ([5]; P<0.05): increased; FVC [5, 9]: 15.95 ± 1.36^##Δ ml/s; IC [5, 9]: 9.84 ± 0.75 mL/s

Source: patent publication US20260108548A1, “COMPOSITION OF PAEONIFLORIN AND ISOLIQUIRITIGENIN AND USE THEREOF” (HENAN UNIVERSITY OF CHINESE MEDICINE, priority 2023, published 2026)
